In paper doi:10.1101/2023.11.24.568596v1 (biorxiv, 2023):
Each block holds one compound with its values, some of them ahead of it.

Key:
Conditions in all cases: binder
Haspin = molecular target: T1, Haspin (Homo sapiens, UniProt Q8TF76)
T1 sequence (Q8TF76 1-798): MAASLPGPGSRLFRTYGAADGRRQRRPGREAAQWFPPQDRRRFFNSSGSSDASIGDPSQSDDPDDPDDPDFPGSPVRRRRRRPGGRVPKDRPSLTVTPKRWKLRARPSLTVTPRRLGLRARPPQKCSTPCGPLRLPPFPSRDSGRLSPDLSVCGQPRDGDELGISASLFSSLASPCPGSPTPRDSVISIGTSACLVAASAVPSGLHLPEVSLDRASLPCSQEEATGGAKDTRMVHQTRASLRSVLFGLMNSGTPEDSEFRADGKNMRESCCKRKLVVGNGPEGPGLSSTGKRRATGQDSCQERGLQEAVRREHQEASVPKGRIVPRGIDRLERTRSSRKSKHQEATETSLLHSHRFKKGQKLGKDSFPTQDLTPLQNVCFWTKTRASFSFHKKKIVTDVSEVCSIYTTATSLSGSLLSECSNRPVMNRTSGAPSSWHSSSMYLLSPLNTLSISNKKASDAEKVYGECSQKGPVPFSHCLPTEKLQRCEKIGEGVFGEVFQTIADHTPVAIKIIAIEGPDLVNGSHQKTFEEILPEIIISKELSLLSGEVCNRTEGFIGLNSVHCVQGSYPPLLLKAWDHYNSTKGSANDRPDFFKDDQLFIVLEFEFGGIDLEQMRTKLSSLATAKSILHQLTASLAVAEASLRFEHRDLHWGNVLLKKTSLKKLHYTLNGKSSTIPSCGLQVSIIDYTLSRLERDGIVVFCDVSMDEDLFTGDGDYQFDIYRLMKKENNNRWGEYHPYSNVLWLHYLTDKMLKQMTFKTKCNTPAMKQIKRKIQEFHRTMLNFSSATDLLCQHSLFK

BMPR2 = molecular target: T2, BMPR2 (Homo sapiens, UniProt Q13873)
T2 sequence (Q13873 1-1038): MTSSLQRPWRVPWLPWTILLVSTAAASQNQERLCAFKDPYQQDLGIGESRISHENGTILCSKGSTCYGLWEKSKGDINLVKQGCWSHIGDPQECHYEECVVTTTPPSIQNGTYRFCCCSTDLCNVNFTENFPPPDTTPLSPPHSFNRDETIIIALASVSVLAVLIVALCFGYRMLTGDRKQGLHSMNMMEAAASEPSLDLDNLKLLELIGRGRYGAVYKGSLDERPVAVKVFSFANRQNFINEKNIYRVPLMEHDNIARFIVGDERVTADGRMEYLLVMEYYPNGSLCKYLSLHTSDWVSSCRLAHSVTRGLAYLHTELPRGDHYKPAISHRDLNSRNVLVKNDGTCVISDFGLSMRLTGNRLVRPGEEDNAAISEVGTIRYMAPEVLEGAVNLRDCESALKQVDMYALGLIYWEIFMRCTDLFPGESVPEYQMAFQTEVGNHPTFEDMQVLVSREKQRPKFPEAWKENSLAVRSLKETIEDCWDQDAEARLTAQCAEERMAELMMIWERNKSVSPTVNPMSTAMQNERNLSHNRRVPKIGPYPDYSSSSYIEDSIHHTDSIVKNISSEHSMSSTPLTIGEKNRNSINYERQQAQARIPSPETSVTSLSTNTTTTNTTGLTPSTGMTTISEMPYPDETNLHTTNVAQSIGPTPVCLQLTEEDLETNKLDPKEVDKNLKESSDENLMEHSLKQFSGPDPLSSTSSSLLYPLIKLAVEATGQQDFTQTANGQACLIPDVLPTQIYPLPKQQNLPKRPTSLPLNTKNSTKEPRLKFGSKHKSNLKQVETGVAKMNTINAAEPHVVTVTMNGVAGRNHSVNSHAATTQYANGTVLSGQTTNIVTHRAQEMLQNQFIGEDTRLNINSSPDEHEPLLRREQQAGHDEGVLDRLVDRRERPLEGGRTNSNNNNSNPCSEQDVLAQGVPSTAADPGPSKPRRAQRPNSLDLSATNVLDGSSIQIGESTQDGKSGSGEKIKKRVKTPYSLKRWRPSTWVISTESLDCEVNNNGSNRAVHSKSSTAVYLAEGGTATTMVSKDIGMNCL

MELK = MELK (Homo sapiens, UniProt Q14680)
MELK, sequence (Q14680 whole entry): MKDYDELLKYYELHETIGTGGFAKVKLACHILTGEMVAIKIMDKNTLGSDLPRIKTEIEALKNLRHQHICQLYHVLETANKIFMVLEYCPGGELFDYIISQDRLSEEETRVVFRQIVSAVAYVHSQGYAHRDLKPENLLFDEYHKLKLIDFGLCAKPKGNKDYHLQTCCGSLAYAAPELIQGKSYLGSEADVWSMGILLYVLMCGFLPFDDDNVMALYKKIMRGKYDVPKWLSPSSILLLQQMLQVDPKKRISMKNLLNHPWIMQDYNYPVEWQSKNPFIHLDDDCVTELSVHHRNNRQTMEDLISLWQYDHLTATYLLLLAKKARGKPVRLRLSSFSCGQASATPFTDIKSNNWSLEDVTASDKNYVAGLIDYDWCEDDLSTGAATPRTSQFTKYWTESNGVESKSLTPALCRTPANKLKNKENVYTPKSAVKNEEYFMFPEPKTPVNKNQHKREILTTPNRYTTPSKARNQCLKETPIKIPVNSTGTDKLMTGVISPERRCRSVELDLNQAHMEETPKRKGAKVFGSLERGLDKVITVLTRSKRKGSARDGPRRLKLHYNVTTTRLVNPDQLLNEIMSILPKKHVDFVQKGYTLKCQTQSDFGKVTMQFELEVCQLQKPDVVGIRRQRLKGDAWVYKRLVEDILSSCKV

dTm 33 (Haspin): -0.2 °C
dTm 33 (BMPR2): -0.1 °C
dTm 33 (MELK): 6.4 °C
Structure (SMILES): Cc1cccc(-c2ccc(-c3cc4cnc(Nc5ccc(F)c(CO)c5)nc4n(CCCCN)c3=O)c(Cl)c2)n1 [compound 33, 8-(4-Aminobutyl)-6-(2-chloro-4-(6-methylpyridin-2-yl)phenyl)-2-((4-fluoro-3-(hydroxymethyl)phenyl)amino)pyrido[2,3-d]pyrimidin-7(8H)-one]

dTm 34 (Haspin): -0.2 °C
dTm 34 (BMPR2): 0.0 °C
dTm 34 (MELK): 3.3 °C
Structure (SMILES): COc1ccc(O)c(Nc2ncc3cc(-c4ccc(-c5cccc(C)n5)cc4Cl)c(=O)n(CCCCN)c3n2)c1 [compound 34, 8-(4-Aminobutyl)-6-(2-chloro-4-(6-methylpyridin-2-yl)phenyl)-2-((2-hydroxy-5-methoxy-phenyl)amino)pyrido[2,3-d]pyrimidin-7(8H)-one]

dTm 35 (Haspin): -0.1 °C
dTm 35 (BMPR2): -1.0 °C
dTm 35 (MELK): 7.5 °C
Structure (SMILES): COc1cc(N2CCOCC2)ccc1Nc1ncc2cc(-c3ccc(-c4cccc(C)n4)cc3Cl)c(=O)n(CCCCN)c2n1 [compound 35, 8-(4-Aminobutyl)-6-(2-chloro-4-(6-methylpyridin-2-yl)phenyl)-2-((2-methoxy-4-morpholino-phenyl)amino)pyrido[2,3-d]pyrimidin-7(8H)-one]

dTm 36 (Haspin): -0.7 °C
dTm 36 (BMPR2): -0.2 °C
dTm 36 (MELK): 7.4 °C
Structure (SMILES): COc1cc(N2CCN(C)CC2)ccc1Nc1ncc2cc(-c3ccc(-c4cccc(C)n4)cc3Cl)c(=O)n(CCCCN)c2n1 [compound 36, 8-(4-Aminobutyl)-6-(2-chloro-4-(6-methylpyridin-2-yl)phenyl)-2-((2-methoxy-4-(4-methylpiperazin-1-yl)phenyl)amino)pyrido[2,3-d]pyrimidin-7(8H)-one]
